# The source made the active and inactive calls. The calls are words filed in the database; no cut-off is given here.
# Experiments:
# Homo sapiens [1] = species: Homo sapiens; assay: Inhibition of alpha-chymotrypsin-like activity of human 20S proteasome at 11 uM using Succ-Leu-Leu-Val-Tyr-AMC as fluorogenic substrate by microplate reader relative to control
# Homo sapiens [2] = species: Homo sapiens; assay: Inhibition of caspase-like activity of human 20S proteasome at 11 uM using Cbz-Leu-Leu-Glu-AMC as fluorogenic substrate by microplate reader relative to control
# HeLa = assay: Cytotoxicity against human HeLa cells by Alamar blue assay; assay type: functional
# [3] = biological target: Proteasome Macropain subunit (Homo sapiens) (UniProt P49721); assay: Inhibition of trypsin-like activity of human 20S proteasome at 11 uM using boc-Leu-Arg-Arg-AMC as fluorogenic substrate by microplate reader relative to control
# Proteasome Macropain subunit (Homo sapiens), sequence (P49721 whole entry): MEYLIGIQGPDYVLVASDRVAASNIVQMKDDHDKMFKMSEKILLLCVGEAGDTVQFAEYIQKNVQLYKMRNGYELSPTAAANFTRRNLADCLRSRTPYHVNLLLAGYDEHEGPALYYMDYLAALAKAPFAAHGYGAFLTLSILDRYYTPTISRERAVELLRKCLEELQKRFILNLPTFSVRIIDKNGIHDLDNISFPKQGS
# [4] = biological target: Rhodesain (Trypanosoma brucei rhodesiense) (UniProt Q95PM0); assay: Reversible inhibition of Trypanosoma brucei rhodesain assessed as reversibility by measuring residual enzymatic activity using Cbz-Phe-Arg-AMC as substrate after 1 hr by fluorometry based dialysis experiment relative to control
# Rhodesain (Trypanosoma brucei rhodesiense), sequence (Q95PM0 1-450): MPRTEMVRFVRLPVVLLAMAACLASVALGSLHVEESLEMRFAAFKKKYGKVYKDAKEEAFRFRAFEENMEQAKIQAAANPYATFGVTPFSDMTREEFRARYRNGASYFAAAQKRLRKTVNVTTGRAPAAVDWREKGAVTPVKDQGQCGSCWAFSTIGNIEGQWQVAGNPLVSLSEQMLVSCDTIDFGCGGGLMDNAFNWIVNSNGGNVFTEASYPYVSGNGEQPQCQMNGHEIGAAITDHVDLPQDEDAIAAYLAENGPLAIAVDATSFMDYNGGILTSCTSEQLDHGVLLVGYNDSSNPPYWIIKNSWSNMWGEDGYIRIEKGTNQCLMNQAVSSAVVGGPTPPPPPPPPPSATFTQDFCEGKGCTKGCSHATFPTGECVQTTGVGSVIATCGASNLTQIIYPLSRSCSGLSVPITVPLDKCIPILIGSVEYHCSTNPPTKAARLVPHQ
# [5] = test system: Trypanosoma brucei brucei; assay: Antiprotozoal activity against Trypanosoma brucei brucei TC211 assessed as luminescence incubated for 24 to 48 hrs by ATPlite assay; assay type: functional, organism-based
# Rhodesain [6] = biological target: T1, Rhodesain (Trypanosoma brucei rhodesiense, UniProt Q95PM0); assay: Inhibition of Trypanosoma brucei rhodesain assessed as fluorescence using Cbz-Phe-Arg-AMC as substrate measured at second inhibition step by fluorometric enzyme assays
# T1 sequence (Q95PM0 whole entry): as the sequence (Q95PM0 1-450) above
# [7] = test system: Trypanosoma brucei brucei; assay: Antiprotozoal activity against Trypanosoma brucei brucei BS449 assessed as luminescence incubated for 24 to 48 hrs by ATPlite assay; assay type: functional, organism-based
# J774.1 = assay: Cytotoxicity against mouse J774.1 cells by Alamar blue assay; assay type: functional
# [8] = biological target: Rhodesain (Trypanosoma brucei rhodesiense) (UniProt Q95PM0); assay: Binding affinity to Trypanosoma brucei rhodesain assessed as protein-ligand adducts by MALDI-TOF MS analysis
# [9] = test system: cathepsin L (CatL) versus rhodesain; assay: Selectivity index, ratio of Ki for human liver CatL to Trypanosoma brucei rhodesain; settings: read-out: Selectivity Index
# Procathepsin L [10] = biological target: T2, Procathepsin L (Homo sapiens, UniProt P07711); assay: Inhibition of human liver CatL assessed as fluorescence using Cbz-Phe-Arg-AMC as substrate measured at second inhibition step by fluorometric enzyme assays
# T2 sequence (P07711 whole entry): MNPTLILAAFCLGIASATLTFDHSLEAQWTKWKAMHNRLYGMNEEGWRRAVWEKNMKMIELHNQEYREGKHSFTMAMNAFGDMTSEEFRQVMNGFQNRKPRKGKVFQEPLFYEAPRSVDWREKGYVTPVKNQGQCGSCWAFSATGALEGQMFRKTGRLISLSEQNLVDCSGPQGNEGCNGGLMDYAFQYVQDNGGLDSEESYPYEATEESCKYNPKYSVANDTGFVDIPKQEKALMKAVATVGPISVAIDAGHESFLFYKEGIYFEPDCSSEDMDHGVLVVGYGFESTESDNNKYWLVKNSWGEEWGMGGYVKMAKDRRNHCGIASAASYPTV
# [11] = biological target: Rhodesain (Trypanosoma brucei rhodesiense) (UniProt Q95PM0); assay: Inhibition of Trypanosoma brucei rhodesain assessed as rate constant of association using Cbz-Phe-Arg-AMC as substrate by fluorometric enzyme assays
# [12] = biological target: Rhodesain (Trypanosoma brucei rhodesiense) (UniProt Q95PM0); assay: Inhibition of Trypanosoma brucei rhodesain assessed as rate constant of dissociation of the final complex using Cbz-Phe-Arg-AMC as substrate by fluorometric enzyme assays
# Rhodesain [13] = biological target: T1, Rhodesain; assay: Inhibition of Trypanosoma brucei rhodesain assessed as fluorescence using Cbz-Phe-Arg-AMC as substrate measured using Dixon equation by fluorometric enzyme assays
# Cathepsin B = Cathepsin B (Homo sapiens, UniProt P07858); assay: Inhibition of human liver CatB assessed as fluorescence using Cbz-Phe-Arg-AMC as substrate at 11 uM by fluorometric enzyme assays
# Procathepsin L [14] = biological target: T2, Procathepsin L; assay: Inhibition of human CatL assessed as fluorescence using Cbz-Phe-Arg-AMC as substrate measured using Dixon equation by fluorometric enzyme assays; design: species or system Liver
# Dengue virus = assay: Inhibition of Dengue virus NS2B-NS3 protease assessed as fluorescent emission using boc-Gly-Arg-Arg-AMC at 11 uM by microplate reader relative to control
compound,measurement,setting,value
Cc1ccc(C[C@H](NC(=O)c2ccncc2)C(=O)N[C@H](/C=C(\F)S(=O)(=O)c2ccccc2)CCc2ccccc2)cc1,inhibition,Homo sapiens [1],13%
same,inhibition,Homo sapiens [2],28%
same,CC50,HeLa,> 100 µM
same,inhibition,[3],12%
same,Activity,[4],29%
same,EC50,[5],1900 nM
O=C(N[C@@H](Cc1ccccc1)C(=O)N[C@H](/C=C(\F)S(=O)(=O)c1ccccc1)CCc1ccccc1)c1cc(F)cc(F)c1,Ki,Rhodesain [6],350 nM
Cc1ccc(C[C@H](NC(=O)c2cc[n+]([O-])cc2)C(=O)N[C@H](/C=C/S(=O)(=O)Oc2ccccc2)CCc2ccccc2)cc1,Ki,Rhodesain [6],1.5 nM
CN1CCN(C(=O)N[C@@H](Cc2ccccc2)C(=O)N[C@H](/C=C/S(=O)(=O)c2ccccc2)CCc2ccccc2)CC1 [K-777],EC50,[7],180 nM
same,CC50,HeLa,> 10 µM
same,CC50,J774.1,41 µM
O=C(N[C@@H](Cc1ccccc1)C(=O)N[C@H](/C=C(\F)S(=O)(=O)Oc1ccccc1)CCc1ccccc1)OCc1ccccc1,Ki,Rhodesain [6],158 nM
same,Activity,[8],Active
Cc1ccc(C[C@H](NC(=O)c2ccncc2)C(=O)N[C@H](/C=C/S(=O)(=O)Oc2ccccc2)CCc2ccccc2)cc1,Ki,Rhodesain [6],0.45 nM
Cc1cccc(C[C@H](NC(=O)c2ccc3c(c2)OCCO3)C(=O)N[C@H](/C=C(\F)S(=O)(=O)c2ccccc2)CCc2ccccc2)c1,Ki,Rhodesain [6],35 nM
Cc1cccc(C[C@H](NC(=O)c2ccncc2)C(=O)N[C@H](/C=C(\F)S(=O)(=O)Cc2ccccc2)CCc2ccccc2)c1,selectivity ratio,[9],2
same,Ki,Rhodesain [6],61 nM
same,Ki,Procathepsin L [10],122 nM
Cc1cccc(C[C@H](NC(=O)c2cc(F)cc(F)c2)C(=O)N[C@H](/C=C(\F)S(=O)(=O)Oc2ccccc2)CCc2ccccc2)c1,K,[11],0.055 s⁻¹
same,K,[12],0.01 s⁻¹
same,Ki,Rhodesain [6],152 nM
same,Ki,Rhodesain [13],21 nM
O=C(N[C@@H](Cc1ccccc1)C(=O)N[C@H](/C=C(/F)S(=O)(=O)Oc1ccccc1)CCc1ccccc1)c1ccncc1,Ki,Rhodesain [6],525 nM
same,Activity,[8],Active
Cc1ccc(C[C@H](NC(=O)c2ccc3c(c2)OCCO3)C(=O)N[C@H](/C=C(\F)S(=O)(=O)Cc2ccccc2)CCc2ccccc2)cc1,selectivity ratio,[9],6
same,Ki,Rhodesain [6],14 nM
same,Ki,Procathepsin L [10],76 nM
same,inhibition,Cathepsin B,8%
CSCC[C@@H](/C=C(\F)S(=O)(=O)c1ccccc1)NC(=O)[C@H](Cc1ccccc1)NC(=O)N1CCN(C)CC1,inhibition,Homo sapiens [1],inactive
same,inhibition,Homo sapiens [2],18%
same,EC50,[7],14100 nM
same,CC50,HeLa,77 µM
same,inhibition,[3],inactive
same,CC50,J774.1,43 µM
Cc1ccc(C[C@H](NC(=O)c2ccc3c(c2)OCCO3)C(=O)N[C@H](/C=C(\F)S(=O)(=O)Oc2ccccc2)CCc2ccccc2)cc1,Ki,Procathepsin L [14],39 nM
same,K,[11],0.065 s⁻¹
same,K,[12],0.005 s⁻¹
same,inhibition,Dengue virus,11%
same,selectivity ratio,[9],6
same,Ki,Rhodesain [6],98 nM
same,inhibition,Homo sapiens [1],22%
same,Ki,Rhodesain [13],7 nM
same,Ki,Procathepsin L [10],348 nM
same,inhibition,Homo sapiens [2],31%
same,inhibition,Cathepsin B,14%
same,EC50,[7],140 nM
same,CC50,HeLa,> 100 µM
same,inhibition,[3],inactive
Cc1ccc(C[C@H](NC(=O)c2cc(F)cc(F)c2)C(=O)N[C@H](/C=C(\F)S(=O)(=O)Cc2ccccc2)CCc2ccccc2)cc1,Ki,Rhodesain [6],29 nM
Cc1cccc(C[C@H](NC(=O)c2ccc3c(c2)OCCO3)C(=O)N[C@H](/C=C(\F)S(=O)(=O)Cc2ccccc2)CCc2ccccc2)c1,Ki,Rhodesain [6],92 nM
O=C(N[C@@H](Cc1ccccc1)C(=O)N[C@H](/C=C(\F)S(=O)(=O)Cc1ccccc1)CCc1ccccc1)c1ccc2c(c1)OCCO2,Ki,Rhodesain [6],46 nM
Cc1cccc(C[C@H](NC(=O)c2cc(F)cc(F)c2)C(=O)N[C@H](/C=C(\F)S(=O)(=O)c2ccccc2)CCc2ccccc2)c1,Ki,Rhodesain [6],329 nM
Cc1ccc(C[C@H](NC(=O)c2ccc3c(c2)OCCO3)C(=O)N[C@H](/C=C(\F)S(=O)(=O)c2ccccc2)CCc2ccccc2)cc1,CC50,HeLa,> 100 µM
same,EC50,[5],800 nM
Cc1ccc(C[C@H](NC(=O)c2cc(F)cc(F)c2)C(=O)N[C@H](/C=C(\F)S(=O)(=O)Oc2ccccc2)CCc2ccccc2)cc1,K,[11],0.049 s⁻¹
same,K,[12],0.009 s⁻¹
same,Ki,Rhodesain [6],34 nM
same,Ki,Rhodesain [13],5 nM
Cc1cccc(C[C@H](NC(=O)c2ccncc2)C(=O)N[C@H](/C=C(\F)S(=O)(=O)c2ccccc2)CCc2ccccc2)c1,Ki,Rhodesain [6],25 nM
same,Ki,Procathepsin L [10],49 nM
Cc1cccc(C[C@H](NC(=O)c2ccncc2)C(=O)N[C@H](/C=C(\F)S(=O)(=O)Oc2ccccc2)CCc2ccccc2)c1,Ki,Procathepsin L [14],30 nM
same,K,[11],0.062 s⁻¹
same,K,[12],0.005 s⁻¹
same,selectivity ratio,[9],4
same,Ki,Rhodesain [6],94 nM
same,Ki,Rhodesain [13],7 nM
same,Ki,Procathepsin L [10],266 nM
same,inhibition,Cathepsin B,50%
CN1CCN(C(=O)N[C@@H](Cc2ccccc2)C(=O)N[C@H](/C=C(\F)S(=O)(=O)c2ccccc2)CSCc2ccccc2)CC1,inhibition,Dengue virus,13%
same,inhibition,Homo sapiens [1],71%
same,inhibition,Homo sapiens [2],inactive
same,EC50,[7],3000 nM
same,CC50,HeLa,8 µM
same,inhibition,[3],14%
same,CC50,J774.1,8.7 µM
CN1CCN(C(=O)N[C@@H](Cc2ccccc2)C(=O)N[C@H](/C=C(\F)S(=O)(=O)Oc2ccccc2)CCc2ccccc2)CC1,Ki,Rhodesain [6],108 nM
same,Activity,[8],Active
O=C(N[C@@H](Cc1ccccc1)C(=O)N[C@H](/C=C(\F)S(=O)(=O)c1ccccc1)CCc1ccccc1)c1ccc2c(c1)OCCO2,inhibition,Homo sapiens [1],inactive
same,inhibition,Homo sapiens [2],26%
same,inhibition,[3],inactive
Cc1cccc(C[C@H](NC(=O)c2ccc3c(c2)OCCO3)C(=O)N[C@H](/C=C(\F)S(=O)(=O)Oc2ccccc2)CCc2ccccc2)c1,K,[11],0.074 s⁻¹
same,K,[12],0.015 s⁻¹
same,Ki,Rhodesain [6],59 nM
same,Ki,Rhodesain [13],10 nM
O=C(N[C@@H](Cc1ccccc1)C(=O)N[C@H](/C=C(\F)S(=O)(=O)Cc1ccccc1)CCc1ccccc1)c1ccncc1,Ki,Rhodesain [6],53 nM
same,Ki,Procathepsin L [10],226 nM
same,inhibition,Cathepsin B,44%
O=C(N[C@@H](Cc1ccccc1)C(=O)N[C@H](/C=C(\F)S(=O)(=O)Cc1ccccc1)CCc1ccccc1)c1cc(F)cc(F)c1,Ki,Rhodesain [6],124 nM
Cc1cccc(C[C@H](NC(=O)c2cc(F)cc(F)c2)C(=O)N[C@H](/C=C(\F)S(=O)(=O)Cc2ccccc2)CCc2ccccc2)c1,Ki,Rhodesain [6],380 nM
O=C(N[C@@H](Cc1ccccc1)C(=O)N[C@H](/C=C(\F)S(=O)(=O)Oc1ccccc1)CCc1ccccc1)c1ccc2c(c1)OCCO2,K,[11],0.045 s⁻¹
same,K,[12],0.011 s⁻¹
same,Ki,Rhodesain [6],45 nM
same,Ki,Rhodesain [13],9 nM
Cc1ccc(C[C@H](NC(=O)c2cc(F)cc(F)c2)C(=O)N[C@H](/C=C(\F)S(=O)(=O)c2ccccc2)CCc2ccccc2)cc1,Ki,Rhodesain [6],100 nM
CN1CCN(C(=O)N[C@@H](Cc2ccccc2)C(=O)N[C@H](/C=C(\F)S(=O)(=O)c2ccccc2)CCc2ccccc2)CC1,inhibition,Dengue virus,inactive
same,inhibition,Homo sapiens [1],13%
same,inhibition,Homo sapiens [2],16%
same,EC50,[7],12500 nM
same,CC50,HeLa,10 µM
same,inhibition,[3],inactive
same,Activity,[8],Active
same,CC50,J774.1,38 µM
O=C(N[C@H](/C=C(\F)S(=O)(=O)Oc1ccccc1)CCc1ccccc1)[C@H](Cc1ccccc1)NC(=O)N1CCNCC1,Ki,Rhodesain [6],192 nM

# From ChEMBL document CHEMBL4831511, “Fluorovinylsulfones and -Sulfonates as Potent Covalent Reversible Inhibitors of the Trypanosomal Cysteine Protease Rhodesain: Structure-Activity Relationship, Inhibition Mechanism, Metabolism, and In Vivo Studies” (J Med Chem, 2021)
